# Measured values from PubChem BioAssay (NCI).
#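 Growth conditions: 96-well plates. Treatment: test compound, 48 hours, 5 concentrations. Analysis: linear interpolation between bracketing concentrations; unreached endpoints set to highest concentration. GI50 marks 50% less growth. TGI is the concentration that stops growth completely.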
# Experiments:
# Experiment in all cases: inhibition of tumour cell growth, NCI panel, 48 h
# [1] = tested on: NCI-H23 lung
# [2] = tested on: SR leukemia
# [3] = tested on: UACC-257 melanoma
# [4] = tested on: MDA-MB-468 breast
# [5] = tested on: NCI-H226 lung
# [6] = tested on: SK-MEL-2 melanoma
# [7] = tested on: HOP-92 NSCLC
# [8] = tested on: K-562 leukemia
# [9] = tested on: BT-549 breast
# [10] = tested on: CAKI-1 renal
# [11] = tested on: IGROV1 ovarian
# [12] = tested on: SK-OV-3 ovarian
# [13] = tested on: 786-0 renal
# [14] = tested on: HL-60(TB) leukemia
# [15] = tested on: DU-145 prostate
# [16] = tested on: SN12C renal
# [17] = tested on: MOLT-4 leukemia
# [18] = tested on: A549 NSCLC
# [19] = tested on: U251 CNS
# [20] = tested on: T-47D breast
# [21] = tested on: RXF 393 renal
# [22] = tested on: HS 578T breast
# [23] = tested on: EKVX NSCLC
# [24] = tested on: OVCAR-4 ovarian
# [25] = tested on: SF-539 CNS
# [26] = tested on: M14 melanoma
# [27] = tested on: CCRF-CEM leukemia
# [28] = tested on: SF-268 CNS
# [29] = tested on: SF-295 CNS
# [30] = tested on: NCI/ADR-RES ovarian
# [31] = tested on: MALME-3M melanoma
# [32] = tested on: UACC-62 melanoma
# [33] = tested on: SNB-19 CNS
# [34] = tested on: MDA-MB-435
# [35] = tested on: HT29 colon
# [36] = tested on: HOP-62 NSCLC
# [37] = tested on: SK-MEL-28 melanoma
# [38] = tested on: RPMI-8226 leukemia
# [39] = tested on: MDA-MB-231 breast
# [40] = tested on: A498 renal
# [41] = tested on: NCI-H460 lung
# [42] = tested on: SK-MEL-5 melanoma
# [43] = tested on: NCI-H522 lung
# [44] = tested on: KM12 colon
# [45] = tested on: HCC-2998 colon
# [46] = tested on: PC-3 prostate
# [47] = tested on: ACHN renal
# [48] = tested on: UO-31 renal
# [49] = tested on: HCT-15 colon
# [50] = tested on: SNB-75 CNS
# [51] = tested on: SW-620 colon
# [52] = tested on: MCF7 breast
# [53] = tested on: OVCAR-8 ovarian
# [54] = tested on: COLO 205 colon
# [55] = tested on: OVCAR-5 ovarian
# [56] = tested on: OVCAR-3 ovarian
# [57] = tested on: LOX IMVI melanoma
# [58] = tested on: TK-10 renal
structure (smiles),measurement,setting,value
CCNCCCn1c2c(c3cc(OC)c(OC)cc3c1=O)C(=O)c1cc3c(nc1-2)OCO3,GI50,[1],0.324 µM
same,TGI,[1],3.76 µM
same,GI50,[2],0.307 µM
same,TGI,[2],2.39 µM
same,GI50,[3],13.4 µM
same,TGI,[3],27.7 µM
same,GI50,[4],0.431 µM
same,TGI,[4],2.51 µM
same,GI50,[5],1.27 µM
same,TGI,[5],3.2 µM
same,GI50,[6],> 100 µM
same,TGI,[6],> 100 µM
same,GI50,[7],7.73 µM
same,TGI,[7],23.1 µM
same,GI50,[8],0.483 µM
same,TGI,[8],2.75 µM
same,GI50,[9],6.82 µM
same,TGI,[9],25.1 µM
same,GI50,[10],0.946 µM
same,TGI,[10],16.6 µM
same,GI50,[11],12.1 µM
same,TGI,[11],25.7 µM
same,GI50,[12],1.14 µM
same,TGI,[12],11.8 µM
same,GI50,[13],1.39 µM
same,TGI,[13],2.84 µM
same,GI50,[14],1.63 µM
same,TGI,[14],7.5 µM
same,GI50,[15],0.548 µM
same,TGI,[15],12.5 µM
same,GI50,[16],4.61 µM
same,TGI,[16],17.4 µM
same,GI50,[17],0.048 µM
same,TGI,[17],2.13 µM
same,GI50,[18],1.22 µM
same,TGI,[18],18.4 µM
same,GI50,[19],0.348 µM
same,TGI,[19],14.7 µM
same,GI50,[20],1.06 µM
same,TGI,[20],13.9 µM
same,GI50,[21],1.35 µM
same,TGI,[21],5.66 µM
same,GI50,[22],10.4 µM
same,TGI,[22],29.8 µM
same,GI50,[23],5.26 µM
same,TGI,[23],20 µM
same,GI50,[24],14.2 µM
same,TGI,[24],31.9 µM
same,GI50,[25],0.675 µM
same,TGI,[25],4.1 µM
same,GI50,[26],1.97 µM
same,TGI,[26],12.3 µM
same,GI50,[27],0.0351 µM
same,TGI,[27],1.23 µM
same,GI50,[28],0.85 µM
same,TGI,[28],16.8 µM
same,GI50,[29],0.23 µM
same,TGI,[29],12.7 µM
same,GI50,[30],1.56 µM
same,TGI,[30],4.14 µM
same,GI50,[31],1.35 µM
same,TGI,[31],2.76 µM
same,GI50,[32],1.81 µM
same,TGI,[32],15.4 µM
same,GI50,[33],1.69 µM
same,TGI,[33],17.5 µM
same,GI50,[34],1.38 µM
same,TGI,[34],2.89 µM
same,GI50,[35],0.706 µM
same,TGI,[35],16.1 µM
same,GI50,[36],0.205 µM
same,TGI,[36],10.2 µM
same,GI50,[37],2.56 µM
same,TGI,[37],8.53 µM
same,GI50,[38],0.641 µM
same,TGI,[38],2.97 µM
same,GI50,[39],1.91 µM
same,TGI,[39],6.14 µM
same,GI50,[40],9.07 µM
same,TGI,[40],23 µM
same,GI50,[41],0.239 µM
same,TGI,[41],1.39 µM
same,GI50,[42],0.921 µM
same,TGI,[42],2.14 µM
same,GI50,[43],0.442 µM
same,TGI,[43],23 µM
same,GI50,[44],10.4 µM
same,TGI,[44],23.8 µM
same,GI50,[45],4.07 µM
same,TGI,[45],18.9 µM
same,GI50,[46],1.28 µM
same,TGI,[46],18.9 µM
same,GI50,[47],0.755 µM
same,TGI,[47],7.05 µM
same,GI50,[48],3.09 µM
same,TGI,[48],16.3 µM
same,GI50,[49],1.14 µM
same,TGI,[49],2.54 µM
same,GI50,[50],0.495 µM
same,TGI,[50],9.41 µM
same,GI50,[51],0.631 µM
same,TGI,[51],20.1 µM
same,GI50,[52],0.0754 µM
same,TGI,[52],10.3 µM
same,GI50,[53],1.82 µM
same,TGI,[53],12 µM
same,GI50,[54],3.07 µM
same,TGI,[54],19.6 µM
same,GI50,[55],3.69 µM
same,TGI,[55],16.5 µM
same,GI50,[56],11.9 µM
same,TGI,[56],24.7 µM
same,GI50,[57],0.487 µM
same,TGI,[57],1.9 µM
same,GI50,[58],17.6 µM
same,TGI,[58],33.3 µM
